The term EC50 denotes the concentration giving half of the maximal effect.

In ChEMBL document CHEMBL4842360, “Discovery of a Bicyclic Peptidyl Pan-Ras Inhibitor” (J Med Chem, 2021) one finds IC50 and EC50 data, which are given here for 18 molecules.

Chain of GTPase KRas (P01116 whole entry G12V, the tested form may be a part): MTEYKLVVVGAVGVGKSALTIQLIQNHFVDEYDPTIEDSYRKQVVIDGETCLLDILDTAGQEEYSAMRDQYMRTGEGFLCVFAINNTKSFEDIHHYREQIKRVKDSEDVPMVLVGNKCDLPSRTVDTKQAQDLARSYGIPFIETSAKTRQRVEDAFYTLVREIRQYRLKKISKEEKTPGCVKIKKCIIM

One test addresses GTPase KRas (Homo sapiens, UniProt P01116, G12V). As to the kind of experiment: Inhibition of His6-tagged KRas G12V mutant (unknown origin) expressed in Escherichia coli BL21(DE3) cells assessed as reduction in Ras/GST-fused Raf RBD interaction incubated for 1 hr by HTRF assay.
Conditions: not given; call rule not given here
For orientation: In TR-FRET formats the signal depends on donor and acceptor labels being close together.
For `CC(C)[C@@H](NC(=O)C[C@@H](CC(N)=O)NC(=O)[C@@H]1CNC(=O)c2cc3cc(c2)C(=O)N[C@H](Cc2ccc4ccccc4c2)C(=O)N[C@@H](CO)C(=O)N[C@@H](CCC(N)=O)C(=O)N[C@H](Cc2ccc4ccccc4c2)C(=O)N[C@@H](c2ccccc2)C(=O)N[C@@H](CCCCNC3=O)C(=O)N[C@H](Cc2ccccc2)C(=O)N[C@@H](C)C(=O)N[C@H](CCCNC(=N)N)C(=O)N[C@@H](CCCNC(=N)N)C(=O)N1)C(=O)N[C@H](C)CC(=O)N[C@H](Cc1c[nH]c2ccccc12)C(=O)NCCC(N)=O`, the IC50 entry is listed as “Not Active”.

The test system of a further test is NCI-H358. Description: Antiproliferative activity against human NCI-H358 cells incubated for 96 hrs by Celltiter-Glo assay. The class given is functional, cell-based. The following applies: Homo sapiens, NCI-H358, 96 h; read-out: EC50. On the technique in general: In ATP-based viability assays light output follows the ATP content of the culture.
Consider `C[C@@H]1NC(=O)[C@@H](Cc2ccccc2)NC(=O)[C@@H]2CCCCNC(=O)c3cc(cc(c3)C(=O)N[C@H](Cc3ccc4ccccc4c3)C(=O)N[C@@H](CO)C(=O)N[C@@H](CC(N)=O)C(=O)N[C@H](Cc3ccc4ccccc4c3)C(=O)N[C@@H](c3ccccc3)C(=O)N2)C(=O)NC[C@@H](C(=O)N[C@@H](CCCN)C(=O)N[C@H](CCCNC(=N)N)C(=O)N[C@@H](CCc2ccccc2)C(=O)N[C@H](C)C(N)=O)NC(=O)[C@H](CCCNC(=N)N)NC(=O)[C@@H](CCCNC(=N)N)NC1=O`, for which the 50% effective concentration (EC50) was 9.2 µM.

Turning to `C[C@@H](NC(=O)[C@H](Cc1ccccc1)NC(=O)[C@@H](CCCNC(=N)N)NC(=O)[C@H](CCCN)NC(=O)[C@@H]1CNC(=O)c2cc3cc(c2)C(=O)N[C@H](Cc2ccc4ccccc4c2)C(=O)N[C@@H](CO)C(=O)N[C@@H](CC(N)=O)C(=O)N[C@H](Cc2csc4ccccc24)C(=O)N[C@@H](c2ccccc2)C(=O)N[C@@H](CCCCNC3=O)C(=O)N[C@H](Cc2ccccc2)C(=O)N[C@H](CCC(N)=O)C(=O)N[C@H](CCCNC(=N)N)C(=O)N[C@@H](CCCNC(=N)N)C(=O)N1)C(N)=O`, the EC50 is 5.2 µM. With `C[C@H](NC(=O)C[C@H](Cc1ccccc1)NC(=O)[C@@H](CCCNC(=N)N)NC(=O)[C@H](CCCN)NC(=O)[C@@H]1CNC(=O)c2cc3cc(c2)C(=O)N[C@H](Cc2ccc4ccccc4c2)C(=O)N[C@@H](CO)C(=O)N[C@@H](CC(N)=O)C(=O)N[C@H](Cc2ccc4ccccc4c2)C(=O)N[C@@H](c2ccccc2)C(=O)N[C@@H](CCCCNC3=O)C(=O)N[C@H](Cc2ccccc2)C(=O)N[C@H](CCC(N)=O)C(=O)N[C@H](CCCNC(=N)N)C(=O)N[C@@H](CCCNC(=N)N)C(=O)N1)C(N)=O`, the EC50 came out at 7.4 µM. Take `C[C@@H]1NC(=O)[C@H](CO)NC(=O)[C@@H](Cc2ccc3ccccc3c2)NC(=O)c2cc3cc(c2)C(=O)NC[C@@H](C(=O)N[C@@H](CCCN)C(=O)N[C@H](CCCNC(=N)N)C(=O)N[C@@H](Cc2ccccc2)C(=O)N[C@H](C)C(N)=O)NC(=O)[C@H](CCCNC(=N)N)NC(=O)[C@@H](CCCNC(=N)N)NC(=O)[C@@H](CCC(N)=O)NC(=O)[C@@H](Cc2ccccc2)NC(=O)[C@H](CCCCNC3=O)NC(=O)[C@H](c2ccccc2)NC(=O)[C@@H](Cc2ccc3ccccc3c2)NC1=O`: the 50% effective concentration (EC50) is 4.9 µM.

For the molecule `C[C@@H]1NC(=O)[C@@H](Cc2ccccc2)NC(=O)[C@@H]2CCCCNC(=O)c3cc(cc(c3)C(=O)N[C@H](Cc3ccc4ccccc4c3)C(=O)N[C@@H](CO)C(=O)N[C@@H](CC(N)=O)C(=O)N[C@H](Cc3ccc4ccccc4c3)C(=O)N[C@@H](c3ccccc3)C(=O)N2)C(=O)NC[C@@H](C(=O)N[C@@H](CC(N)=O)C(=O)N[C@H](CCCNC(=N)N)C(=O)N[C@@H](Cc2cccc(Cl)c2)C(=O)N[C@H](C)C(N)=O)NC(=O)[C@H](CCCNC(=N)N)NC(=O)[C@@H](CCCNC(=N)N)NC1=O`, the concentration for a half-maximal effect (EC50) was found to be 9 µM.

As to `C[C@@H]1NC(=O)[C@@H](Cc2ccccc2)NC(=O)[C@@H]2CCCCNC(=O)c3cc(cc(c3)C(=O)N[C@H](Cc3ccc4ccccc4c3)C(=O)N[C@@H](CO)C(=O)N[C@@H](CC(N)=O)C(=O)N[C@H](Cc3ccc4ccccc4c3)C(=O)N[C@@H](c3ccccc3)C(=O)N2)C(=O)NC[C@@H](C(=O)N[C@@H](CCN)CC(=O)N[C@H](CCCNC(=N)N)C(N)=O)NC(=O)[C@H](CCCNC(=N)N)NC(=O)[C@@H](CCCNC(=N)N)NC1=O`, the EC50 stood at 16 µM. On to `CC(C)[C@H](NC(=O)[C@H](Cc1ccccc1)NC(=O)[C@@H](CCCNC(=N)N)NC(=O)[C@H](CCCN)NC(=O)[C@@H]1CNC(=O)c2cc3cc(c2)C(=O)N[C@H](Cc2ccc4ccccc4c2)C(=O)N[C@@H](CO)C(=O)N[C@@H](CC(N)=O)C(=O)N[C@H](Cc2ccc4ccccc4c2)C(=O)N[C@@H](c2ccccc2)C(=O)N[C@@H](CCCCNC3=O)C(=O)N[C@H](Cc2ccccc2)C(=O)N[C@H](CCC(N)=O)C(=O)N[C@H](CCCNC(=N)N)C(=O)N[C@@H](CCCNC(=N)N)C(=O)N1)C(N)=O`, for which the EC50 came out at 7.1 µM.

With `C[C@@H]1NC(=O)[C@@H](Cc2ccccc2)NC(=O)[C@@H]2CCCCNC(=O)c3cc(cc(c3)C(=O)N[C@H](Cc3ccc4ccccc4c3)C(=O)N[C@@H](CO)C(=O)N[C@@H](CC(N)=O)C(=O)N[C@H](Cc3ccc4ccccc4c3)C(=O)N[C@@H](c3ccccc3)C(=O)N2)C(=O)NC[C@@H](C(=O)N[C@@H](CCCN)C(=O)N[C@H](CCCNC(=N)N)C(=O)N[C@H](C(=O)N[C@H](C)C(N)=O)c2ccccc2)NC(=O)[C@H](CCCNC(=N)N)NC(=O)[C@@H](CCCNC(=N)N)NC1=O`, the EC50 came out at 4.5 µM. On to `C[C@@H](NC(=O)[C@H](Cc1ccccc1)NC(=O)[C@@H](CCCNC(=N)N)NC(=O)[C@H](CCCN)NC(=O)[C@@H]1CNC(=O)c2cc3cc(c2)C(=O)N[C@H](Cc2ccc4ccccc4c2)C(=O)N[C@@H](CO)C(=O)N[C@@H](CC(N)=O)C(=O)N[C@H](Cc2ccc4ccccc4c2)C(=O)N[C@@H](c2ccccc2)C(=O)N[C@@H](CCCCNC3=O)C(=O)N[C@H](Cc2ccccc2)C(=O)N[C@H](CCCN)C(=O)N[C@H](CCCNC(=N)N)C(=O)N[C@@H](CCCNC(=N)N)C(=O)N1)C(N)=O`, for which the half-maximal effective concentration (EC50) came out at 6.4 µM. The same measure, in the same setting: the result for `CC(C)C[C@H]1NC(=O)[C@@H](Cc2ccccc2)NC(=O)[C@@H]2CCCCNC(=O)c3cc(cc(c3)C(=O)N[C@H](Cc3ccc4ccccc4c3)C(=O)N[C@@H](CO)C(=O)N[C@@H](CC(N)=O)C(=O)N[C@H](Cc3ccc4ccccc4c3)C(=O)N[C@@H](c3ccccc3)C(=O)N2)C(=O)NC[C@@H](C(=O)N[C@@H](CCCN)C(=O)N[C@H](CCCNC(=N)N)C(=O)N[C@@H](Cc2ccccc2)C(=O)N[C@H](C)C(N)=O)NC(=O)[C@H](CCCNC(=N)N)NC(=O)[C@@H](CCCNC(=N)N)NC1=O` reads 4.8 µM; that for `CC[C@H]1NC(=O)[C@@H](Cc2ccccc2)NC(=O)[C@@H]2CCCCNC(=O)c3cc(cc(c3)C(=O)N[C@H](Cc3ccc4ccccc4c3)C(=O)N[C@@H](CO)C(=O)N[C@@H](CC(N)=O)C(=O)N[C@H](Cc3ccc4ccccc4c3)C(=O)N[C@@H](c3ccccc3)C(=O)N2)C(=O)NC[C@@H](C(=O)N[C@@H](CCCN)C(=O)N[C@H](CCCNC(=N)N)C(=O)N[C@@H](Cc2ccccc2)C(=O)N[C@H](C)C(N)=O)NC(=O)[C@H](CCCNC(=N)N)NC(=O)[C@@H](CCCNC(=N)N)NC1=O`, 7.2 µM.

`N=C(N)NCCC[C@@H]1NC(=O)[C@@H](CCCNC(=N)N)NC(=O)[C@@H](CCC(N)=O)NC(=O)[C@@H](Cc2ccccc2)NC(=O)[C@@H]2CCCCNC(=O)c3cc(cc(c3)C(=O)N[C@H](Cc3ccc4ccccc4c3)C(=O)N[C@@H](CO)C(=O)N[C@@H](CC(N)=O)C(=O)N[C@H](Cc3ccc4ccccc4c3)C(=O)N[C@@H](c3ccccc3)C(=O)N2)C(=O)NC[C@@H](C(=O)N[C@@H](CCCN)C(=O)N[C@H](CCCNC(=N)N)C(=O)N[C@@H](Cc2ccccc2)C(=O)N[C@H](CO)C(N)=O)NC1=O`: the EC50 worked out at 5.3 µM. For `C[C@@H](NC(=O)[C@H](Cc1ccccc1)NC(=O)[C@@H](CCCNC(=N)N)NC(=O)[C@H](CCCN)NC(=O)[C@@H]1CNC(=O)c2cc3cc(c2)C(=O)N[C@H](Cc2csc4ccccc24)C(=O)N[C@@H](CO)C(=O)N[C@@H](CC(N)=O)C(=O)N[C@H](Cc2ccc4ccccc4c2)C(=O)N[C@@H](c2ccccc2)C(=O)N[C@@H](CCCCNC3=O)C(=O)N[C@H](Cc2ccccc2)C(=O)N[C@H](CCC(N)=O)C(=O)N[C@H](CCCNC(=N)N)C(=O)N[C@@H](CCCNC(=N)N)C(=O)N1)C(N)=O`, the EC50 worked out at 17 µM.

In the case of `C[C@@H](O)[C@H](NC(=O)[C@H](Cc1ccccc1)NC(=O)[C@@H](CCCNC(=N)N)NC(=O)[C@H](CCCN)NC(=O)[C@@H]1CNC(=O)c2cc3cc(c2)C(=O)N[C@H](Cc2ccc4ccccc4c2)C(=O)N[C@@H](CO)C(=O)N[C@@H](CC(N)=O)C(=O)N[C@H](Cc2ccc4ccccc4c2)C(=O)N[C@@H](c2ccccc2)C(=O)N[C@@H](CCCCNC3=O)C(=O)N[C@H](Cc2ccccc2)C(=O)N[C@H](CCC(N)=O)C(=O)N[C@H](CCCNC(=N)N)C(=O)N[C@@H](CCCNC(=N)N)C(=O)N1)C(N)=O`, the EC50 worked out at 2.6 µM.

The test is the same for the next values; noted with them: nci-h358.
As for `C[C@@H]1NC(=O)[C@@H](Cc2ccccc2)NC(=O)[C@@H]2CCCCNC(=O)c3cc(cc(c3)C(=O)N[C@H](Cc3ccc4ccccc4c3)C(=O)N[C@@H](CO)C(=O)N[C@@H](CC(N)=O)C(=O)N[C@H](Cc3ccc4ccccc4c3)C(=O)N[C@@H](c3ccccc3)C(=O)N2)C(=O)NC[C@@H](C(=O)N[C@@H](CCCN)C(=O)N[C@H](CCCNC(=N)N)C(=O)N[C@@H](Cc2c[nH]c3ccccc23)C(=O)N[C@H](C)C(N)=O)NC(=O)[C@H](CCCNC(=N)N)NC(=O)[C@@H](CCCNC(=N)N)NC1=O`, the concentration for a half-maximal effect (EC50) result is reported as “Not Active”. In the case of `C[C@@H](NC(=O)[C@H](Cc1ccccc1)NC(=O)[C@@H](CCCNC(=N)N)NC(=O)[C@H](CCCN)NC(=O)[C@@H]1CNC(=O)c2cc3cc(c2)C(=O)N[C@H](Cc2ccc4ccccc4c2)C(=O)N[C@@H](CCO)C(=O)N[C@@H](CC(N)=O)C(=O)N[C@H](Cc2ccc4ccccc4c2)C(=O)N[C@@H](c2ccccc2)C(=O)N[C@@H](CCCCNC3=O)C(=O)N[C@H](Cc2ccccc2)C(=O)N[C@H](CCC(N)=O)C(=O)N[C@H](CCCNC(=N)N)C(=O)N[C@@H](CCCNC(=N)N)C(=O)N1)C(N)=O`, the EC50 entry is on record as “Not Active”. The same measure, in the same setting: the result for `C[C@@H]1NC(=O)[C@@H](Cc2ccccc2)NC(=O)[C@@H]2CCCCNC(=O)c3cc(cc(c3)C(=O)N[C@H](Cc3ccc4ccccc4c3)C(=O)N[C@@H](CO)C(=O)N[C@@H](CC(N)=O)C(=O)N[C@H](Cc3ccc4ccccc4c3)C(=O)N[C@@H](c3ccccc3)C(=O)N2)C(=O)NC[C@@H](C(=O)N[C@@H](CN)C(=O)N[C@H](CCCNC(=N)N)C(=O)N[C@@H](Cc2ccc(F)cc2)C(=O)N[C@H](C)C(N)=O)NC(=O)[C@H](CCCNC(=N)N)NC(=O)[C@@H](CCCNC(=N)N)NC1=O` reads “Not Active”.
